Earlier results, collected in patent US20220220558A1, “METHODS AND SYSTEMS FOR PROGNOSIS OF A PATIENT'S RESPONSE TO TREATMENT OF ANDROGENETIC SKIN DISORDERS” (priority 2008, published 2022).

Tested on: female androgenetic alopecia
Settings: clinical trials

For `CC(C)(C)NC(=O)[C@H]1CC[C@H]2[C@@H]3CC[C@H]4NC(=O)C=C[C@]4(C)[C@H]3CC[C@]12C` [finasteride], the “affect on hair re-growth in women” value is given as “statistically not significant”.
